Experimental data from patent US6410253B1, “Cholesterol oxidase” (priority 1990, dated 2002).

Columns and labels:
Assay type in all cases: biochemical, Brevibacterium sterolicum ATCC 21387
cholesterol oxidase I [1] = molecular target: T1, cholesterol oxidase I (Brevibacterium sterolicum, UniProt P22637); assay: Influence of inhibitor on cholesterol oxidase I activity; conditions: inhibitor 1 mM; activity in the absence of inhibitor = 100
Method: (§1) Relative activity is shown in Table 2, in the presence of an inhibitor at a concentration of 1 mM, when in the absence of the inhibitor, the activities of cholesterol oxidases I and II are regarded as 100.
The amount of enzyme which catalyzes the reaction of decomposing 1 μmole of cholesterol at 37° C. for one minute in the presence of oxygen is defined as one unit. The titer is determined as follows. While shaking, the enzyme acts on cholesterol and 4-aminoantipyrine and phenol are reacted with the formed hydrogen peroxide in the presence of peroxidase to form quinonimine pigment. Absorption of the thus formed quinonimine pigment in the visible region is measured to determine the amount of hydrogen peroxide generated. Thus, the titer of the enzyme is determined. Hereafter specific activity is defined as activity per 1 mg of protein (unit/mg). Furthermore, an amount of enzyme protein is determined by absorbance at 280 nm (1 mg/ml when absorbance is 1). […]

cholesterol oxidase II [2] = assay: Influence of inhibitor on cholesterol oxidase II activity; conditions: for Inhibition of the enzyme (in words): cholesterol oxidase II; for Relative Activity (%) of cholesterol oxidase II in the presence of inhibitor: inhibitor 1 mM, activity in the absence of inhibitor = 100
Method: as §1
(§2) The amount of enzyme which catalyzes the reaction of decomposing 1 μmole of cholesterol at 37° C. for one minute in the presence of oxygen is defined as one unit. The titer is determined as follows. While shaking, the enzyme acts on cholesterol and 4-aminoantipyrine and phenol are reacted with the formed hydrogen peroxide in the presence of peroxidase to form quinonimine pigment. Absorption of the thus formed quinonimine pigment in the visible region is measured to determine the amount of hydrogen peroxide generated. Thus, the titer of the enzyme is determined. Hereafter specific activity is defined as activity per 1 mg of protein (unit/mg). Furthermore, an amount of enzyme protein is determined by absorbance at 280 nm (1 mg/ml when absorbance is 1).
In a test tube, there are charged 1.0 ml of 3 mM cholesterol solution (which is prepared by adding 6 ml of 50 mM cholesterol ethanol solution to 94 ml of 1.05% Triton X-100 solution with stirring, heating the mixture for 10 minutes on a water bath, cooling the mixture in water, adding distilled water to the mixture until the total volume is 100 ml; and is not allowed to be used 30 minutes or longer after preparation) , 0.3 ml of 50 mM sodium bilate solution, 0.3 ml of 0.5 mM potassium-sodium phosphate buffer (pH 6.6), 0.5 ml of 42 mM phenol, 0.5 ml of 2.4 mM 4-aminoantipyrine and 0.2 ml of 115 units/ml horseradish-derived peroxidase. The mixture is agitated. After maintaining at 37° C. for 3 minutes, 0.2 ml of an enzyme solution is added to the mixture. While shaking, the reaction is carried out at 37° C. for 5 to 10 minutes. Then, absorbance is measured at 500 nm (OD 500 nm)

cholesterol oxidase II [3] = assay: Substrate specificity of cholesterol oxidase II (relative activity on sterol substrates); conditions: for Relative Activity (%) of cholesterol oxidase II on substrate: cholesterol = 100; for Substrate specificity (acts / does not act on): cholesterol oxidase II
Method: as §2, with “(unit/mg).” for “(unit/mg). Furthermore, an amount of enzyme protein is determined by absorbance at 280 nm (1 mg/ml when absorbance is 1).”
(§3) The enzyme activity is determined by reacting hydrogen peroxide generated by the enzyme with 4-aminoantipyrine and phenol in the presence of peroxidase and quantitatively determining the formed quinonimine pigment. The reaction is shown by the following equations (1) and (2). [drawing 3]
(§4) The mixture is agitated. After maintaining at 37° C. for 3 minutes, 0.2 ml of an enzyme solution is added to the mixture. While shaking, the reaction is carried out at 37° C. for 5 to 10 minutes. Then, absorbance is measured at 500 nm (OD 500 nm)

cholesterol oxidase I [4] = molecular target: T1, cholesterol oxidase I; assay: Substrate specificity of cholesterol oxidase I (relative activity on sterol substrates); conditions: cholesterol = 100
Method: as §2, with “(unit/mg).” for “(unit/mg). Furthermore, an amount of enzyme protein is determined by absorbance at 280 nm (1 mg/ml when absorbance is 1).”
as §3, §4

T1 sequence (P22637 46-552): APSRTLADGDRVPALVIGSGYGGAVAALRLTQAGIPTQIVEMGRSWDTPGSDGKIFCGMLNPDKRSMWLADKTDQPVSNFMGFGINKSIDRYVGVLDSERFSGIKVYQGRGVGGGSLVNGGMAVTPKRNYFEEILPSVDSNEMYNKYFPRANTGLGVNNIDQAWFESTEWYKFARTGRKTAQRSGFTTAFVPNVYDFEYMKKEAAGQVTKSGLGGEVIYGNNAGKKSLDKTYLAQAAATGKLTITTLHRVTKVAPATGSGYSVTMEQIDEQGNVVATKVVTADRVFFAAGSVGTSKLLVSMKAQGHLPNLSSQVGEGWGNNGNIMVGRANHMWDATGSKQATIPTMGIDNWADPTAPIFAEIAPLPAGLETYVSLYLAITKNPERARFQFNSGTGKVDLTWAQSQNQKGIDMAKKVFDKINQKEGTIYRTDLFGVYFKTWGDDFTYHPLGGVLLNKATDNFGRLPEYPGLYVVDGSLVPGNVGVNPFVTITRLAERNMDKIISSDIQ

| SMILES | Relative Activity (%) of cholesterol oxidase I in the presence of inhibitor (cholesterol oxidase I [1]) [%] | Inhibition of the enzyme (in words) (cholesterol oxidase II [2]) | Relative Activity (%) of cholesterol oxidase II in the presence of inhibitor (cholesterol oxidase II [2]) [%] | Relative Activity (%) of cholesterol oxidase II on substrate (cholesterol oxidase II [3]) [%] | Substrate specificity (acts / does not act on) (cholesterol oxidase II [3]) | Relative Activity (%) of cholesterol oxidase I on substrate (cholesterol oxidase I [4]) [%] |
| --- | --- | --- | --- | --- | --- | --- |
| O=[N+]([O-])[O-].[Ag+] [AgNO3, silver nitrate] | 0 | inhibited | 1.0 |  |  |  |
| C[C@]12CC[C@@H](O)C[C@@H]1CC[C@@H]1[C@@H]2CC[C@]2(C)C(=O)CC[C@@H]12 [Androsterone] |  |  |  | 0 | does not act on | 0 |
| CCCCC/C=C\C/C=C\CCCCCCCC(=O)O[C@H]1CC[C@@]2(C)C(=CC[C@H]3[C@@H]4CC[C@H]([C@H](C)CCCC(C)C)[C@@]4(C)CC[C@@H]32)C1 [Cholesterol linoleate] |  |  |  | 0 | does not act on | 0 |
| CC(C)CCC[C@@H](C)[C@H]1CC[C@H]2[C@@H]3CC=C4C[C@@H](O)CC[C@]4(C)[C@H]3CC[C@]12C [Cholesterol, 5-cholesten-3-β-ol] |  |  |  | 100 |  | 100 |
| C[C@]12CC[C@H](O)CC1=CC[C@@H]1[C@@H]2CC[C@]2(C)C(=O)CC[C@@H]12 [Dehydroisoandrosterone] |  |  |  | 13.0 |  | 41.4 |
| C[C@]12CC[C@@H]3c4ccc(O)cc4CC[C@H]3[C@@H]1CC[C@@H]2O [Estradiol] |  |  |  |  |  | 0 |
| CC(C)=CCC[C@@H](C)[C@H]1CC[C@@]2(C)C3=C(CC[C@]12C)[C@@]1(C)CC[C@H](O)C(C)(C)[C@@H]1CC3 [Lanosterol] |  |  |  | 0 | does not act on | 0 |
| CC(=O)[C@H]1CC[C@H]2[C@@H]3CC=C4C[C@@H](O)CC[C@]4(C)[C@H]3CC[C@]12C [Pregnenolone] |  |  |  | 32.9 |  | 22.4 |
| CC[C@H](/C=C/[C@@H](C)[C@H]1CC[C@H]2[C@@H]3CC=C4C[C@@H](O)CC[C@]4(C)[C@H]3CC[C@]12C)C(C)C [Stigmasterol] |  |  |  | 64.4 |  | 10.0 |
| C=C1CC[C@H](O)C/C1=C/C=C1\CCC[C@]2(C)[C@@H]([C@H](C)CCCC(C)C)CC[C@@H]12 [Vitamin D3] |  |  |  | 0 | does not act on | 0 |
| Oc1cccc2cccnc12 [o-Hydroxyquinoline] |  | inhibited | 91.3 |  |  |  |
| O=S(=O)(O)c1cc[c]([Hg][Cl])cc1 [p-Chloromercury benzenesulfonate] | 80.0 | inhibited | 87.0 |  |  |  |
| CC[C@H](CC[C@@H](C)[C@H]1CC[C@H]2[C@@H]3CC=C4C[C@@H](O)CC[C@]4(C)[C@H]3CC[C@]12C)C(C)C [β-Sitosterol] |  |  |  | 82.0 |  | 19.7 |
